Literature values as cited in patent US4296101A, “Antibiotic kristenin” (E. R. Squibb & Sons, Inc., priority 1978, dated 1981).

Tested on: gram positive bacteria
Details: stated by Okazaki et al., Journal of Antibiotics, Vol. 28, No. 9, pages 717-719

In the case of CCC(N)C(O)C(O)C(C)C(=O)NC(CC(C)C)C1Cc2cccc(O)c2C(=O)O1 (stereo not shown) [baciphelacin], the “active against gram positive bacteria” value is given as “active against gram positive bacteria”.
